From patent US4167405A, “Fertilizers for supplying plants with iron” (Bayer Aktiengesellschaft, priority 1977, dated 1979)

Experiments:
[1] = tested on: Chrysanthemum indicum (Variety: Yellow Delaware); test: Combating iron deficiency/leaf uptake test; assay type: in vivo
Method: Test plant: Chrysanthemum indicum (Variety: Yellow Delaware)
Culture substrate: Mixture of polystyrene foam flock (Styromull) and potassium alginate in the volume ratio of 10:1
To prepare a suitable formulation of the active compound, the particular amount of active compound desired was dissolved in water.
Test plants were grown in a culture substrate of the composition indicated above, fertilization and watering being effected by adding, twice weekly, a mineral-iron-deficient nutrient solution according to Hoagland and Arnon (Circular 347, College of Agriculture, University of California, Berkeley 1950). […] After 2 days the plants were again sprayed with the active compound formulation in the same manner.
The evaluation took place when an average of 2 leaves had newly formed on the plants treated with an optimum amount of a water-soluble, commercially available iron fertilizer, in each case, the average number of newly formed leaves was determined on all test plants. Furthermore, the intensity of the green colour of newly formed leaves was rated and expressed as a numerical code.
In this, the figures denoted:
1=0% chlorotic (dark green)
9=100% chlorotic (corresponding to the untreated control plants)

[2] = Water solubility of the preparation; assay type: physicochemical
[3] = nutrient preparation in the spray liquor 0.03 %
[4] = nutrient preparation in the spray liquor 0.16 %
[5] = nutrient preparation in the spray liquor 0.78 %
[6] = nutrient preparation in the spray liquor 0.12 %
[7] = nutrient preparation in the spray liquor 0.59 %
[8] = nutrient preparation in the spray liquor 0.13 %
[9] = nutrient preparation in the spray liquor 0.62 %
[10] = nutrient preparation in the spray liquor 0.66 %
[11] = nutrient preparation in the spray liquor 0.14 %
[12] = nutrient preparation in the spray liquor 0.15 %
[13] = nutrient preparation in the spray liquor 0.74 %

SMILES: CCCCCCCCCC(=O)[c-]1cccc1.[Fe+2].c1cc[cH-]c1 [Example 2, n-decanoyl-ferrocene]
- Average number of newly formed leaves [1, 3]: 4
- Intensity of the green colour of young leaves [1, 3]: 3 (25% chlorotic)
- Average number of newly formed leaves [1, 4]: 5
- Intensity of the green colour of young leaves [1, 4]: 2-3
- Average number of newly formed leaves [1, 5]: 5
- Intensity of the green colour of young leaves [1, 5]: 2
- Water solubility of the preparation [2]: slight

SMILES: CCCCC(=O)[c-]1cccc1.[Fe+2].c1cc[cH-]c1 [Example 3, n-pentanoylferrocene]
- Average number of newly formed leaves [1, 6]: 4
- Intensity of the green colour of young leaves [1, 6]: 2-3
- Average number of newly formed leaves [1, 7]: 4
- Intensity of the green colour of young leaves [1, 7]: 2
- Water solubility of the preparation [2]: slight

SMILES: CCCCCC(=O)[c-]1cccc1.[Fe+2].c1cc[cH-]c1 [Example 4, n-hexanoylferrocene]
- Average number of newly formed leaves [1, 8]: 3
- Intensity of the green colour of young leaves [1, 8]: 3 (25% chlorotic)
- Average number of newly formed leaves [1, 9]: 3
- Intensity of the green colour of young leaves [1, 9]: 2-3
- Water solubility of the preparation [2]: slight

SMILES: CCCCCCC(=O)[c-]1cccc1.[Fe+2].c1cc[cH-]c1 [Example 5, n-heptanoylferrocene]
- Average number of newly formed leaves [1, 8]: 4
- Intensity of the green colour of young leaves [1, 8]: 3 (25% chlorotic)
- Average number of newly formed leaves [1, 10]: 4
- Intensity of the green colour of young leaves [1, 10]: 2-3
- Water solubility of the preparation [2]: slight

SMILES: CCCCCCCC(=O)[c-]1cccc1.[Fe+2].c1cc[cH-]c1 [Example 6, n-octanoylferrocene]
- Average number of newly formed leaves [1, 3]: 4
- Intensity of the green colour of young leaves [1, 3]: 3 (25% chlorotic)
- Average number of newly formed leaves [1, 11]: 5
- Intensity of the green colour of young leaves [1, 11]: 2-3
- Water solubility of the preparation [2]: slight

SMILES: CCCCCCCCC(=O)[c-]1cccc1.[Fe+2].c1cc[cH-]c1 [Example 7, n-nonaoylferrocene]
- Average number of newly formed leaves [1, 3]: 4
- Intensity of the green colour of young leaves [1, 3]: 3 (25% chlorotic)
- Average number of newly formed leaves [1, 12]: 5
- Intensity of the green colour of young leaves [1, 12]: 2-3
- Average number of newly formed leaves [1, 13]: 5
- Intensity of the green colour of young leaves [1, 13]: 2
- Water solubility of the preparation [2]: slight
